Test results from patent publication US20240158446A1, “CYCLIC COMPOUND HAVING SELECTIVE INHIBITORY ACTION ON KRAS OVER HRAS AND NRAS” (CHUGAI SEIYAKU KABUSHIKI KAISHA, priority 2021, published 2024).

Assays:
[1] = target: GDP-bound KRAS wild-type protein (Homo sapiens, UniProt P01116); assay: Binding to KRAS by surface plasmon resonance (SPR), Single Cycle Kinetics; settings: SPR, Single Cycle Kinetics, GDP-bound KRAS wild-type protein; read-out: KRAS KD
[2] = target: GDP-bound HRAS wild-type protein (Homo sapiens, UniProt P01112); assay: Binding to HRAS by surface plasmon resonance (SPR), Single Cycle Kinetics; settings: SPR, GDP-bound HRAS wild-type protein vs GDP-bound KRAS wild-type protein
[3] = target: GDP-bound NRAS wild-type protein (Homo sapiens, UniProt P01111); assay: Binding to NRAS by surface plasmon resonance (SPR), Single Cycle Kinetics; settings: SPR, GDP-bound NRAS wild-type protein vs GDP-bound KRAS wild-type protein
GDP-bound NRAS wild-type protein, sequence (P01111 whole entry): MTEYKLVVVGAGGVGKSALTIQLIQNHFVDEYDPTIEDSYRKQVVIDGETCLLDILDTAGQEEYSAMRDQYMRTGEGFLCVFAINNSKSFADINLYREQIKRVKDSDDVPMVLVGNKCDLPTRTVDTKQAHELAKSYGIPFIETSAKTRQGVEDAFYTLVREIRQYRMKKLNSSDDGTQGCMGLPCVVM

GDP-bound KRAS wild-type protein, sequence (P01116 whole entry): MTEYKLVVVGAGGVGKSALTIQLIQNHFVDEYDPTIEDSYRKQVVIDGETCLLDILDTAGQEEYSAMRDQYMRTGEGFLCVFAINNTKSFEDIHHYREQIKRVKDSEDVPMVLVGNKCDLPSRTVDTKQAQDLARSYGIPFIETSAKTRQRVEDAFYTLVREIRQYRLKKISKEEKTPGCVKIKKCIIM
GDP-bound HRAS wild-type protein, sequence (P01112 whole entry): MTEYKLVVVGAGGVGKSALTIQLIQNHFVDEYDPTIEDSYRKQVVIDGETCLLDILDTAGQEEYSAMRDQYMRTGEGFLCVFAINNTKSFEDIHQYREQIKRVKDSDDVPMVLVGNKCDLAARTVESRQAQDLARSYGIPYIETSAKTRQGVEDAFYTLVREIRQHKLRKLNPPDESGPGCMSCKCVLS

| SMILES | Kd [1] [nM] | HRAS/KRAS (ratio of KD value for HRAS to KD value for KRAS) [2] | NRAS/KRAS (ratio of KD value for NRAS to KD value for KRAS) [3] |
| --- | --- | --- | --- |
| CC[C@H](C)[C@@H]1NC(=O)[C@H](C)N(C)C(=O)C[C@@H](C(=O)N(C)C)N(C)C(=O)[C@H](C2CCCC2)N(C)C(=O)C2(CCC2)NC(=O)[C@@H]2CC(F)(F)CN2C(=O)[C@H](CCc2cc(F)c(C(F)(F)F)c(F)c2)NC(=O)CN(C)C(=O)[C@H](Cc2ccc(C(F)(F)F)cc2)N2CC/C=C\C[C@@H](C2=O)N(C)C(=O)CN(C)C1=O [PP1103, (2S,8S,14S,20S,23S,27S,30S,36S,38Z)-20-cyclopentyl-8-[2-[3,5-difluoro-4-(trifluoromethyl)phenyl]ethyl]-12,12-difluoro-N,N,4,19,22,26,27,32,35-nonamethyl-30-[(1S)-1-methylpropyl]-3,6,9,15,18,21,25,28,31,34,42-undecaoxo-2-[[4-(trifluoromethyl)phenyl]methyl]spiro[1,4,7,10,16,19,22,26,29,32,35-undecazatricyclo[34.5.1.0^10,14]dotetracont-38-ene-17,1′-cyclobutane]-23-carboxamide] | 0.036 | B (a compound having 3 or more and less than 10 is denoted as B) | A (a compound having 10 or more and less than 20 is denoted as A) |
| CCO[C@@H]1C[C@H]2C(=O)NC3(CCCC3)C(=O)N(C)[C@@H](C3CCCC3)C(=O)N(C)[C@H](C(=O)N(C)C)CC(=O)N(C)[C@@H](C)C(=O)N[C@@H]([C@@H](C)CC)C(=O)N(C)CC(=O)N(C)[C@H]3C/C=C\CCN(C3=O)[C@@H](Cc3ccc(C(F)(F)F)cc3)C(=O)N(C)CC(=O)N[C@@H](CCc3cc(F)c(C(F)(F)F)c(F)c3)C(=O)N2C1 [PP1104, (2S,8S,12R,14S,20S,23S,27S,30S,36S,38Z)-20-cyclopentyl-8-[2-[3,5-difluoro-4-(trifluoromethyl)phenyl]ethyl]-12-ethoxy-N,N,4,19,22,26,27,32,35-nonamethyl-30-[(1S)-1-methylpropyl]-3,6,9,15,18,21,25,28,31,34,42-undecaoxo-2-[[4-(trifluoromethyl)phenyl]methyl]spiro[1,4,7,10,16,19,22,26,29,32,35-undecazatricyclo[34.5.1.0^10,14]dotetracont-38-ene-17,1′-cyclopentane]-23-carboxamide] | 0.059 | A (a compound having 10 or more and less than 20 is denoted as A) | A (a compound having 10 or more and less than 20 is denoted as A) |
| CC[C@H](C)[C@@H]1NC(=O)[C@H](CC)N(C)C(=O)C[C@@H](C(=O)N(C)C)N(CC)C(=O)[C@H](C2CCCC2)N(C)C(=O)C2(CCC2)NC(=O)[C@@H]2CCCN2C(=O)[C@H](CCc2cc(F)c(C(F)(F)F)c(F)c2)NC(=O)CN(C)C(=O)[C@H](Cc2ccc(C(F)(F)F)cc2)N2CC/C=C\C[C@@H](C2=O)N(C)C(=O)CN(C)C1=O [PP1106] | 0.81 | A (a compound having 10 or more and less than 20 is denoted as A) | A (a compound having 10 or more and less than 20 is denoted as A) |
| CCO[C@@H]1C[C@H]2C(=O)NC3(CCC3)C(=O)N(C)[C@@H](C3CCCC3)C(=O)N(C)[C@H](C(=O)N(C)C)CC(=O)N(C)[C@@H](CC(C)C)C(=O)N[C@@H]([C@@H](C)CC)C(=O)N(C)CC(=O)N(C)[C@H]3C/C=C\CCN(C3=O)[C@@H](Cc3ccc(C(F)(F)F)cc3)C(=O)N(C)CC(=O)N[C@@H](CCc3cc(F)c(C(F)(F)F)c(F)c3)C(=O)N2C1 [PP1107, (2S,8S,12R,14S,20S,23S,27S,30S,36S,38Z)-20-cyclopentyl-8-[2-[3,5-difluoro-4-(trifluoromethyl)phenyl]ethyl]-12-ethoxy-27-isobutyl-N,N,4,19,22,26,32,35-octamethyl-30-[(1S)-1-methylpropyl]-3,6,9,15,18,21,25,28,31,34,42-undecaoxo-2-[[4-(trifluoromethyl)phenyl]methyl]spiro[1,4,7,10,16,19,22,26,29,32,35-undecazatricyclo[34.5.1.0^10,14]dotetracont-38-ene-17,1′-cyclobutane]-23-carboxamide] | 0.038 | A (a compound having 10 or more and less than 20 is denoted as A) | A (a compound having 10 or more and less than 20 is denoted as A) |
| CCO[C@@H]1C[C@H]2C(=O)NC3(CCC3)C(=O)N(C)[C@@H](C3CCCC3)C(=O)N(C)[C@H](C(=O)N(C)C)CC(=O)N(C)[C@@H](C)C(=O)N[C@@H]([C@@H](C)CC)C(=O)N(C)CC(=O)N(C)[C@H]3C/C=C\CCN(C3=O)[C@@H](Cc3ccc(C(F)(F)F)cc3)C(=O)N(C)CC(=O)N[C@@H](CCc3cc(F)c(C(F)(F)F)c(F)c3)C(=O)N2C1 [PP1108, (2S,8S,12R,14S,20S,23S,27S,30S,36S,38Z)-20-cyclopentyl-8-[2-[3,5-difluoro-4-(trifluoromethyl)phenyl]ethyl]-12-ethoxy-N,N,4,19,22,26,27,32,35-nonamethyl-30-[(1S)-1-methylpropyl]-3,6,9,15,18,21,25,28,31,34,42-undecaoxo-2-[[4-(trifluoromethyl)phenyl]methyl]spiro[1,4,7,10,16,19,22,26,29,32,35-undecazatricyclo[34.5.1.0^10,14]dotetracont-38-ene-17,1′-cyclobutane]-23-carboxamide] | 0.033 | A (a compound having 10 or more and less than 20 is denoted as A) | A (a compound having 10 or more and less than 20 is denoted as A) |
| CCO[C@@H]1C[C@H]2C(=O)NC3(CCC3)C(=O)N(C)[C@@H](C3CCCC3)C(=O)N(C)[C@H](C(=O)N(C)C)CC(=O)N(C)[C@@H](C(C)C)C(=O)N[C@@H]([C@@H](C)CC)C(=O)N(C)CC(=O)N(C)[C@H]3C/C=C\CCN(C3=O)[C@@H](Cc3ccc(C(F)(F)F)cc3)C(=O)N(C)CC(=O)N[C@@H](CCc3cc(F)c(C(F)(F)F)c(F)c3)C(=O)N2C1 [PP1109, (2S,8S,12R,14S,20S,23S,27S,30S,36S,38Z)-20-cyclopentyl-8-[2-[3,5-difluoro-4-(trifluoromethyl)phenyl]ethyl]-12-ethoxy-27-isopropyl-N,N,4,19,22,26,32,35-octamethyl-30-[(1S)-1-methylpropyl]-3,6,9,15,18,21,25,28,31,34,42-undecaoxo-2-[[4-(trifluoromethyl)phenyl]methyl]spiro[1,4,7,10,16,19,22,26,29,32,35-undecazatricyclo[34.5.1.0^10,14]dotetracont-38-ene-17,1′-cyclobutane]-23-carboxamide] | 0.12 | B (a compound having 3 or more and less than 10 is denoted as B) | A (a compound having 10 or more and less than 20 is denoted as A) |
| CCC[C@H]1C(=O)N[C@@H]([C@@H](C)CC)C(=O)N(C)CC(=O)N(C)[C@H]2C/C=C\CCN(C2=O)[C@@H](Cc2ccc(C(F)(F)F)cc2)C(=O)N(C)CC(=O)N[C@@H](CCc2cc(F)c(C(F)(F)F)c(F)c2)C(=O)N2C[C@H](OCC)C[C@H]2C(=O)NC2(CCC2)C(=O)N(C)[C@@H](C2CCCC2)C(=O)N(C)[C@H](C(=O)N(C)C)CC(=O)N1C [PP1110, (2S,8S,12R,14S,20S,23S,27S,30S,36S,38Z)-20-cyclopentyl-8-[2-[3,5-difluoro-4-(trifluoromethyl)phenyl]ethyl]-12-ethoxy-N,N,4,19,22,26,32,35-octamethyl-30-[(1S)-1-methylpropyl]-3,6,9,15,18,21,25,28,31,34,42-undecaoxo-27-propyl-2-[[4-(trifluoromethyl)phenyl]methyl]spiro[1,4,7,10,16,19,22,26,29,32,35-undecazatricyclo[34.5.1.0^10,14]dotetracont-38-ene-17,1′-cyclobutane]-23-carboxamide] | 0.056 | B (a compound having 3 or more and less than 10 is denoted as B) | A (a compound having 10 or more and less than 20 is denoted as A) |
| CCO[C@@H]1C[C@H]2C(=O)NC3(CCC3)C(=O)N(C)[C@@H](C3CCCC3)C(=O)N(C)[C@H](C(=O)N(C)C)CC(=O)N(C)[C@@H](CC3CC3)C(=O)N[C@@H]([C@@H](C)CC)C(=O)N(C)CC(=O)N(C)[C@H]3C/C=C\CCN(C3=O)[C@@H](Cc3ccc(C(F)(F)F)cc3)C(=O)N(C)CC(=O)N[C@@H](CCc3cc(F)c(C(F)(F)F)c(F)c3)C(=O)N2C1 [PP1111, (2S,8S,12R,14S,20S,23S,27S,30S,36S,38Z)-20-cyclopentyl-27-(cyclopropylmethyl)-8-[2-[3,5-difluoro-4-(trifluoromethyl)phenyl]ethyl]-12-ethoxy-N,N,4,19,22,26,32,35-octamethyl-30-[(1S)-1-methylpropyl]-3,6,9,15,18,21,25,28,31,34,42-undecaoxo-2-[[4-(trifluoromethyl)phenyl]methyl]spiro[1,4,7,10,16,19,22,26,29,32,35-undecazatricyclo[34.5.1.0^10,14]dotetracont-38-ene-17,1′-cyclobutane]-23-carboxamide] | 0.045 | A (a compound having 10 or more and less than 20 is denoted as A) | A (a compound having 10 or more and less than 20 is denoted as A) |
